Reference: ChEMBL document CHEMBL4376867 (J Med Chem, 2020)

How the values were obtained:
Cytochrome P450 2C8 = molecular target: T1, Cytochrome P450 2C8 (Homo sapiens, UniProt P10632); assay: Inhibition of CYP2C8 (unknown origin); format: ADME
T1 sequence (P10632 whole entry): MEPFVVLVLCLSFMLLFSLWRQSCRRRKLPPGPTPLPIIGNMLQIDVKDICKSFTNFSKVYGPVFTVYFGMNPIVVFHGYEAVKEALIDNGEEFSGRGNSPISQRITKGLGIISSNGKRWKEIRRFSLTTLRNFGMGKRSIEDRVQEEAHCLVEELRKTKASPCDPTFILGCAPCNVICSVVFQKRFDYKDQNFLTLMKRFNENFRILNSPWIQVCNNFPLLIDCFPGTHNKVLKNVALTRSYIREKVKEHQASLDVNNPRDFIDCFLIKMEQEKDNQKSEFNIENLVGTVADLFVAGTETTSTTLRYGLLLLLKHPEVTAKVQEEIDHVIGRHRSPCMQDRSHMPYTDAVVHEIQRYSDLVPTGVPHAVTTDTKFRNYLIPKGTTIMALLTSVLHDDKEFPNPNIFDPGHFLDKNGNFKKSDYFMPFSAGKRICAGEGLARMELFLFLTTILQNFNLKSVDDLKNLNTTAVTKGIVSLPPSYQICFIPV

[1] = Volume of distribution at steady state in Wistar rat at 0.30 mg/kg, iv via bolus or 0.30 mg/kg, po measured upto 24 hrs by LC-MS/MS analysis; format: ADME, organism-based; settings: in vivo, 0.3 mg/kg, read-out: Vdss
Mus musculus [2] = assay: Time required for unbound plasma concentration to reach IC50 for recombinant full length human N-terminal His-tagged TBK1 in NMRI mouse at 100 mg/kg, po; format: ADME, organism-based; settings: in vivo
Mus musculus [3] = assay: Time required for unbound plasma concentration to reach IC50 for IKKepsilon/TBK1 in human MDB-MB-231 cells transduced with lentiviral vector expressing human IRF3 in NMRI mouse at 100 mg/kg, po; format: ADME, organism-based; settings: in vivo

**Q.** Which results are given for `C[C@H](c1ccnc(Nc2nc3ccc(-c4cc(N(C)C)ncn4)cc3[nH]2)c1)N1CCN(C(=O)CC(F)(F)F)CC1` [BAY-985]?
**A.** IC50 (Cytochrome P450 2C8): 860 nM; Vd [1]: 2.9 L/kg; Time (Mus musculus [2]): 10 h; Time (Mus musculus [3]): 11 h
